# Patent US10844420B2, “Method for detecting slow-VISA” (priority 2016, dated 2020)
# Experiments:
# Format in all cases: cell-based, Staphylococcus aureus
# slow-VISA [1] = assay: Disk diffusion method of VCM on BHI agar medium with or without mupirocin; conditions: 30 μg/mL vancomycin disks, BHI agar containing 0.032 μg/mL of mupirocin, culture for 48 hours
# Procedure: The disk diffusion method using […] vancomycin disks was separately performed on BHI agar media containing 0.032 μg/mL of mupirocin or BHI agar media in the absence of a drug. […] The values shown above the panels indicate the averages and standard deviations of the diameters of inhibitory zones.
# VISA = assay: Growth of VISA in liquid medium containing VCM with or without mupirocin; conditions: FIG. 1(b)
# Description: (§1) From FIG. 1(b), when VISA was used, an increase in the growth rate by the addition of mupirocin was not observed.
# slow-VISA [2] = assay: ETEST of VCM on BHI medium added with mupirocin, slow-VISA; conditions: BHI medium added with mupirocin at a concentration at which growth was not suppressed
# Procedure: The pictures on the left show the results of a mupirocin-free medium after 96 hours, the pictures on the right show the results of a mupirocin-containing medium after 96 hours, and black arrows show the points after 48 hours.
# (§2) (2) The bacteria grown in step (a) is adjusted to OD=0.3 using an absorbance measuring instrument (wavelength of 578 nm), and it was set as 1×10^8 cells. Then, the bacteria are spread on a BHI agar medium of Eiken Chemical Co., Ltd. and a mupirocin-containing BHI agar medium, and the ETEST® strips (bioMerieux Japan Ltd.) of VCM and cefoxitin are placed thereon, followed by culture for 48 hours in accordance with the CLSI guideline. After 48 hours, tested bacteria having a MIC of cefoxitin of ≥8 μg/mL and a MIC of VCM of >6 μg/mL are suspected to be slow-VISA.
# (§3) Further, it was supposed that the resistance further increased when the stringent response relating to those mutated genes was induced.
# slow-VISA [3] = assay: Growth of slow-VISA in liquid medium containing VCM with or without mupirocin
# Description: In the figure, MUP indicates mupirocin.
# as §1
# [4] = tested on: vancomycin-sensitive strain; assay: ETEST of VCM on BHI medium added with mupirocin, vancomycin-sensitive strain; conditions: BHI medium added with mupirocin at a concentration at which growth was not suppressed
# Procedure: as §2, §3
smiles,measurement,setting,value
C/C(=C\C(=O)OCCCCCCCCC(=O)O)C[C@@H]1OC[C@H](C[C@@H]2O[C@H]2[C@@H](C)[C@H](C)O)[C@@H](O)[C@H]1O [mupirocin],colonies around inhibitory zone,slow-VISA [1],Small numerous colonies were detected
same,increase in the growth rate by the addition of mupirocin,VISA,not observed
same,degree of resistance (ETEST of VCM),slow-VISA [2],increased
same,difference in OD values,"slow-VISA [3]; 0.032 μg/mL mupirocin and 16 μg/mL VCM versus comparison media, in 24 hours",≥ 1
same,growth rate versus culture in mupirocin-free liquid medium or medium with growth-affecting mupirocin concentration and 8 μg/mL of VCM,"slow-VISA [3]; liquid medium, 0.032 μg/mL mupirocin and 16 μg/mL of VCM",larger
same,degree of resistance (ETEST of VCM),[4],did not increase
